Reference: PMC7094781 (Journal of Molecular Biology, 2007)

Target: SARS 3CL^pro (Severe acute respiratory syndrome coronavirus, UniProt P0C6U8)

With “acetyl-leucyl-alanyl-alanyl-ketomethyl(cycloglutamine)-phthalhydrazide [inhibitor 2]” the “bonding mode to Cys145, soaking” value was “the episulfide and the deacylating (major) mixed forms”.
